Laboratory results as given in PMC6805867, “Amphiphilic Triazine Polymer Derivatives as Antibacterial And Anti-atopic Agents in Mice Model” (Scientific Reports, 2019).

Legend:
Type in all cases: cell-based
[1] = tested on: Bacillus subtilis (KCTC 3068); test: Antimicrobial activity, broth microdilution MIC; settings: 2 × 10^6 CFU/mL in 1% peptone, 37 °C, 18–22 h, 100% inhibition of growth, performed three times
Procedure: (§1) The bacterial strains employed in the experiment were Escherichia coli (KCTC 1682), Pseudomonas aeruginosa (KCTC 1637), Bacillus subtilis (KCTC 3068), Staphylococcus aureus (KCTC 1621), three methicillin-resistant Staphylococcus aureus (CCARM 3089, 3090 and 3095), two multidrug-resistant Pseudomonas aeruginosa (CCARM 2095 and 2109) and vancomycin-resistant Enterococcus faecium (ATCC 51559). The antimicrobial activities of polymers were determined by the broth microdilution method, and the procedures were used as previously reported. Briefly, bacteria grown to mid-logarithmic phase in LB broth were diluted to 2 × 10^6 CFU/mL in 1% peptone and added to serial two-fold dilutions of different polymers ranging from 1 to 64 μg/mL. The plates were incubated in a shaking incubator at 37 °C for 18–22 h. The minimum inhibitory concentration (MIC) was determined by confirming the absence of bacterial growth both visually and spectrophotometrically by OD600 readings taken by a microplate ELISA reader (Molecular Devices, Sunnyvale, CA, USA). All measurements were performed three times.

[2] = tested on: Escherichia coli (KCTC 1682); test: Antimicrobial activity, broth microdilution MIC; settings: 2 × 10^6 CFU/mL in 1% peptone, 37 °C, 18–22 h, 100% inhibition of growth, performed three times
Procedure: as §1

[3] = tested on: Pseudomonas aeruginosa (KCTC 1637); test: Antimicrobial activity, broth microdilution MIC; settings: 2 × 10^6 CFU/mL in 1% peptone, 37 °C, 18–22 h, 100% inhibition of growth, performed three times
Procedure: as §1

[4] = tested on: Staphylococcus aureus (KCTC 1621); test: Antimicrobial activity, broth microdilution MIC; settings: 2 × 10^6 CFU/mL in 1% peptone, 37 °C, 18–22 h, 100% inhibition of growth, performed three times
Procedure: as §1

[5] = tested on: selected bacterial strains; test: Geometric mean of MIC values over the bacterial strains; settings: geometric mean of MIC values from selected six bacterial strains (footnote b)
Procedure: as §1

[6] = tested on: Multidrug-resistant Pseudomonas aeruginosa (MDRPA) (CCARM 2095); test: Chequerboard assay (synergy with clinically used antibiotics); settings: for FICA (fractional inhibitory concentration of antibiotic): [A]/MICA; for MICA (MIC of antibiotic alone): MDRPA CCARM 2095, 37 °C, 22 h, unit printed only in b27, not in the table; for [A] (MIC of antibiotic in combination): MDRPA CCARM 2095, unit not given
Procedure: Briefly, 2-fold serial dilutions of each antibiotic and each polymer were prepared and added in a 1:1 volume ratio to the wells of a 96-well plate. An equal volume of bacterial solution (100 μL) at ∼10^6 CFU/mL was then seeded into each well. The plates were incubated in a shaking incubator at 37 °C and 200 rpm and read after 22 h. Bacterial growth was assessed visually or spectrophotometrically via OD600 readings taken by a microplate ELISA reader (Molecular Devices, Sunnyvale, CA, USA). The fractional inhibitory concentration index (FICI) for each drug combination was calculated using the following equation: FICI = FICA + FICB = [A]/MICA + [B]/MICB, where MICA and MICB are the MIC of antibiotic and triazine based monomer (TZP3 or TZP5), respectively, while [A] and [B] are the MIC of antibiotic and triazine based monomer (TZP3 or TZP5) in combination, respectively. FICI of ≤ 0.5 was interpreted as synergy, 0.5 < FICI ≤ 1.0 as additive, 1.0 < FICI ≤ 4.0 as indifferent, and a FICI > 4.0 as antagonism.

SMILES	MIC Bacillus subtilis (KCTC 3068) [1]	MIC Escherichia coli (KCTC 1682) [2]	MIC Pseudomonas aeruginosa (KCTC 1637) [3]	MIC Staphylococcus aureus (KCTC 1621) [4]	GM (geometric mean of MIC values) [5]	FICA (fractional inhibitory concentration of antibiotic) ([6]; in combination with TZP3)	FICA (fractional inhibitory concentration of antibiotic) ([6]; in combination with TZP5)	MICA (MIC of antibiotic alone) [6] [µM]	MICA (MIC of antibiotic alone) ([6]; listed as oxacillin)	[A] (MIC of antibiotic in combination) ([6]; in combination with TZP3)	[A] (MIC of antibiotic in combination) ([6]; in combination with TZP5)	MICA (MIC of antibiotic alone) ([6]; listed as chloramphenicol)
NCCCN(CCCN)c1nc(N)nc(NCCNc2nc(NCCNc3nc(Cl)nc(N(Cc4ccccc4)Cc4ccccc4)n3)nc(N(CCCN)CCCN)n2)n1 [TZP4]	2 [2.3] μg/mL	2 [2.3] μg/mL	4 [4.7] μg/mL	2 [2.3] μg/mL	2.5 [2.9] μg/mL							
NCCCN(CCCN)c1nc(N)nc(NCCNc2nc(NCCNc3nc(Cl)nc(N(CCCN)CCCN)n3)nc(N(CCCN)CCCN)n2)n1 [TZP7]	8 [10.1] μg/mL	16 [20.2] μg/mL	8 [10.1] μg/mL	16 [20.2] μg/mL	12.0 [15.2] μg/mL							
Cc1onc(-c2ccccc2)c1C(=O)N[C@@H]1C(=O)N2[C@@H]1SC(C)(C)[C@@H]2C(=O)O [Oxacillin, oxacillin, reference compound]						1.0	1.0	1024	512−1024 μM	1024	1024	
O=C(N[C@H](CO)[C@H](O)c1ccc([N+](=O)[O-])cc1)C(Cl)Cl [Chloramphenicol, chloramphenicol, reference compound]						0.031	0.031	512		16	16	512−1024 μM
NCCCN(CCCN)c1nc(NCCNc2nc(N)nc(N(Cc3ccccc3)Cc3ccccc3)n2)nc(NCCNc2nc(Cl)nc(N(Cc3ccccc3)Cc3ccccc3)n2)n1 [TZP8]	8 [8.7] μg/mL	8 [8.7] μg/mL	>64 [>69.3] μg/mL	8 [8.7] μg/mL	38.0 [41.1] μg/mL							
N=C(N)NCCCN(CCCNC(=N)N)c1nc(Cl)nc(NCCNc2nc(NCCNc3nc(N)nc(N(CCCN)CCCN)n3)nc(N(Cc3ccccc3)Cc3ccccc3)n2)n1 [TZP6]	2 [2.1] μg/mL	2 [2.1] μg/mL	4 [4.2] μg/mL	2 [2.1] μg/mL	2.5 [2.7] μg/mL							
NCCCN(CCCN)c1nc(N)nc(NCCNc2nc(NCCNc3nc(NCCNc4nc(NCCNc5nc(Cl)nc(N(CCCN)CCCN)n5)nc(N(CCCN)CCCN)n4)nc(N(CCCN)CCCN)n3)nc(N(CCCN)CCCN)n2)n1 [TZP13]	4 [3.3] μg/mL	8 [6.6] μg/mL	8 [6.6] μg/mL	8 [6.6] μg/mL	7.0 [5.7] μg/mL							
